We go through 76 compounds from ChEMBL document CHEMBL1795228, “Air to lung partition coefficients for volatile organic compounds and blood to lung partition coefficients for volatile organic compounds and drugs” (Eur J Med Chem, 2008).

Each structure is given as a SMILES string.

A short description of data set [1]: In-vivo plasma to lung partition coefficients of the compound, logP(lung) in rat. The class given is ADME, cell-free.
A short description of data set [2]: In-vitro blood to lung partition coefficients of the compound, logP(lung) (human/rat).
Data set [3] in a line: In-vitro air to blood partition coefficients of the compound, logK(blood) (human/rat). Particulars: octanol/water.
The nature of data set [4]: In-vitro air to lung partition coefficients of the compound, logK(lung) (human/rat). Particulars: octanol/water.

For `CCCC(CCC)C(=O)O` [VALPROIC ACID], in data set [1], the “logP(lung)” value is listed as -0.38.
On the same count and under the same terms, the result for `CSc1ccc2c(c1)N(CCC1CCCCN1C)c1ccccc1S2` (stereo not drawn) [THIORIDAZINE] reads 1.13; that for `Cc1cccc(OCC(O)CNC(C)C)c1` (stereo not drawn) [TOLIPROLOL], 0.89; that for `OC(CCN1CCCCC1)(c1ccccc1)C1CC2C=CC1C2` (stereo not drawn) [BIPERIDEN], 1.79.
Regarding `CCn1cc(C(=O)O)c(=O)c2ccc(C)nc21` [NALIDIXIC ACID], the “logP(lung)” value in data set [1] is reported as -0.48.
Turning to `CCCCC1(CC)C(=O)NC(=O)NC1=O` [BUTETHAL], the “logP(lung)” value in data set [1] is recorded as 0.18.
Still for that read-out and setting: the result for `CCOc1ccccc1C(N)=O` [ETHENZAMIDE] reads -0.03; that for `CC(C)(C)NC[C@H](O)COc1nsnc1N1CCOCC1` [TIMOLOL], 1.43.
Regarding `ClC(Cl)Cl` [CHLOROFORM], the “logP(lung)” value in data set [2] is recorded as -0.03. Moreover, in data set [3], the “logK(blood)” value is reported as 1.15. Moreover, the “logK(lung)” value in data set [4] is recorded as 1.12.
Turning to `COc1cccc2c1C(=O)c1c(O)c3c(c(O)c1C2=O)C[C@@](O)(C(=O)CO)C[C@@H]3O[C@H]1C[C@H](N)[C@H](O)[C@H](C)O1` [DOXORUBICIN], the “logP(lung)” value in data set [1] is reported as 0.53.
Still for that read-out and setting: the result for `CC1(C)S[C@@H]2[C@H](NC(=O)COc3ccccc3)C(=O)N2[C@H]1C(=O)O` [PENICILLIN V] reads -0.8.
Regarding `FC(F)OC(Cl)C(F)(F)F` (stereo not drawn) [ISOFLURANE], in data set [2], the “logP(lung)” value is reported as 0. Also, the “logK(blood)” value in data set [3] was found to be 0.2. Moreover, the “logK(lung)” value in data set [4] is reported as 0.2.
For the compound `CC1(C)[C@@H](O)CC[C@]2(C)[C@H]3C(=O)C=C4[C@@H]5C[C@@](C)(C(=O)O)CC[C@]5(C)CC[C@@]4(C)[C@]3(C)CC[C@@H]12` [ENOXOLONE], the “logP(lung)” value in data set [1] is recorded as -0.66.
With `CCCC(C)C`, in data set [2], the “logP(lung)” value worked out at 0.29. In addition, the “logK(blood)” value in data set [3] is recorded as -0.39. Besides, in data set [4], the “logK(lung)” value is on record as -0.1.
For `CCCCC` [PENTANE], in that order: -0.01, -0.29 and -0.3.
As to `Cn1c(=O)c2[nH]cnc2n(C)c1=O.O` [THEOPHYLLINE], in data set [1], the “logP(lung)” value is listed as -0.15.
In the case of `CO` [METHYL ALCOHOL], the “logP(lung)” value in data set [2] is listed as -0.17. Also, the “logK(blood)” value in data set [3] was determined as 3.41. In data set [4], the “logK(lung)” value stood at 3.24.
Turning to `COC(=O)C(c1ccccc1)C1CCCCN1` (stereo not drawn) [METHYLPHENIDATE], in data set [1], the “logP(lung)” value is 1.54.
Still for that read-out and setting: the result for `c1ccc(C2(N3CCCCC3)CCCCC2)cc1` [PHENCYCLIDINE] reads 1.61; that for `O=C(O)c1ccccc1O` [SALICYLIC ACID], -0.72.
Regarding `C=CC(=C)Cl` [CHLOROPRENE], the “logK(lung)” value in data set [4] was determined as 1.12.
Take `C1CCCCC1` [CYCLOHEXANE]: the “logP(lung)” value in data set [2] is 0.26. Besides, the “logK(blood)” value in data set [3] amounted to 0.17. Moreover, the “logK(lung)” value in data set [4] is reported as 0.43.
Taken in the same sequence, the figures for `FC(F)(F)C(Cl)Br` (stereo not drawn) [HALOTHANE] were -0.11, 0.57 and 0.46.
Taken in the same sequence, the figures for `FC(F)(F)CCl` were 0.2, 0.14 and 0.34.
For the compound `[N-]=[N+]=O` [NITROUS OXIDE], the “logP(lung)” value in data set [2] turned out to be 0. In data set [3], the “logK(blood)” value is reported as -0.34. In addition, the “logK(lung)” value in data set [4] is given as -0.37.
For `FS(F)(F)(F)(F)F` [SULFUR HEXAFLUORIDE], in that order: 0.03, -2.17 and -2.14.
For `CC` [ETHANE], in that order: -0.26, -1.02 and -1.28.
In the case of `CCC1(c2ccccc2)C(=O)NC(=O)NC1=O` [PHENOBARBITAL], in data set [1], the “logP(lung)” value is reported as -0.08.
In the case of `[C-]#[O+]` [CARBON MONOXIDE], the “logP(lung)” value in data set [2] is given as -0.02. In data set [3], the “logK(blood)” value is given as -1.67. The “logK(lung)” value in data set [4] was -1.69.
Consider `CCCCCCCCC1(CC)C(=O)NC(=O)NC1=O`, for which the “logP(lung)” value in data set [1] was 0.49.
The same measure, in the same setting: then `CCc1ccc(C(=O)C(C)CN2CCCC2)cc1` (stereo not drawn) [INAPERISONE], with 1.52.
Consider `ClCCl` [METHYLENE CHLORIDE], for which the “logP(lung)” value in data set [2] is given as -0.36. Besides, the “logK(blood)” value in data set [3] was determined as 1.12. Moreover, in data set [4], the “logK(lung)” value amounted to 0.76.
As for `CCC(C)CC`, in data set [2], the “logP(lung)” value was determined as 0.32. The “logK(blood)” value in data set [3] is -0.37. Also, the “logK(lung)” value in data set [4] is reported as -0.05.
Consider `CCC1(CC)C(=O)NC(=O)NC1=O` [BARBITAL], for which the “logP(lung)” value in data set [1] is 0.
Same read-out and setting: then `COC(=O)[C@H]1[C@@H](OC(=O)c2ccccc2)C[C@@H]2CC[C@H]1N2C` [COCAINE], with 1.06; and `O=C(O)c1ccc(-c2ccccc2)cc1`, with -0.55.
For `C=CC` [PROPENE], the “logP(lung)” value in data set [2] is reported as -0.03. For the same compound, the “logK(blood)” value in data set [3] is -0.21. Besides, in data set [4], the “logK(lung)” value is -0.24.
Take `Cc1nnc(SCC2=C(C(=O)O)N3C(=O)[C@@H](NC(=O)Cn4cnnn4)[C@H]3SC2)s1` [CEFAZOLIN]: in data set [1], the “logP(lung)” value was -0.78.
The same measure, in the same setting: the result for `CC(C)NCC(O)COc1ccc(COCCOC(C)C)cc1` (stereo not drawn) [BISOPROLOL] reads 1.62; that for `O=c1[nH]c(=O)n(C2CCCO2)cc1F` (stereo not drawn) [TEGAFUR], -0.59; that for `CN1C(C(=O)Nc2ccccn2)=C(O)c2sccc2S1(=O)=O` [TENOXICAM], -0.49.
`CCC(C)=O` [BUTANONE]: the “logP(lung)” value in data set [2] is listed as -0.23. The “logK(blood)” value in data set [3] worked out at 2.24. Also, the “logK(lung)” value in data set [4] came out at 2.01.
As to `CC(C)NCC(O)COc1cccc2[nH]ccc12` (stereo not drawn) [PINDOLOL], in data set [1], the “logP(lung)” value came to 1.01.
Turning to `C1CO1` [OXIRANE], in data set [2], the “logP(lung)” value was -0.01. Moreover, the “logK(blood)” value in data set [3] came to 1.8. The “logK(lung)” value in data set [4] is 1.79.
For `FC(F)OC(F)(F)C(F)Cl` (stereo not drawn), in that order: 0.21, 0.35 and 0.56.
Taken in the same sequence, the figures for `COC(F)(F)C(Cl)Cl` [METHOXYFLURANE] were -0.08, 1.28 and 1.2.
For `CC(C)=O` [ACETONE], in that order: -0.16, 2.36 and 2.2.
Consider `C1CC1` [CYCLOPROPANE], for which, in data set [2], the “logP(lung)” value is -0.3. For the same compound, the “logK(blood)” value in data set [3] is -0.21. Also, the “logK(lung)” value in data set [4] is on record as -0.51.
Taken in the same sequence, the figures for `CCCCCCC` [HEPTANE] were -0.1, 0.5 and 0.4.
For `CCC(C)(C)C`, in that order: 0.37, -0.59 and -0.22.
For `ClC(Cl)=C(Cl)Cl` [TETRACHLOROETHYLENE], in that order: 0.67, 1.19 and 1.86.
For `C=C`, the “logP(lung)” value in data set [2] is listed as 0.28. For the same compound, the “logK(blood)” value in data set [3] is -0.53. Besides, in data set [4], the “logK(lung)” value is -0.25.
With `COn1cc(C(=O)O)c(=O)c2cc3c(cc21)OCO3` [MILOXACIN], the “logP(lung)” value in data set [1] is listed as -0.29.
As for `O=O` [OXYGEN], the “logP(lung)” value in data set [2] is listed as -0.04. For the same compound, the “logK(blood)” value in data set [3] is -1.58. Further, in data set [4], the “logK(lung)” value was -1.62.
Take `CCCCCCCC1(CC)C(=O)NC(=O)NC1=O`: the “logP(lung)” value in data set [1] is 0.12.
As to `CN(C/C=C/C#CC(C)(C)C)Cc1cccc2ccccc12` [TERBINAFINE], the “logP(lung)” value in data set [1] was 0.41.
On the same count and under the same terms, then `CC(C)NCC(O)COc1ccc(CCOCC2CC2)cc1` (stereo not drawn) [BETAXOLOL], with 2.29.
Consider `[He]` [HELIUM], for which the “logP(lung)” value in data set [2] is 0.02. In data set [3], the “logK(blood)” value was -2. Moreover, in data set [4], the “logK(lung)” value is given as -1.98.
Turning to `CC1CCCC1` [METHYLCYCLOPENTANE], in data set [2], the “logP(lung)” value was found to be 0.3. The “logK(blood)” value in data set [3] was -0.07. Further, the “logK(lung)” value in data set [4] is reported as 0.23.
Consider `Cc1onc(-c2c(Cl)cccc2Cl)c1C(=O)N[C@@H]1C(=O)N2[C@@H]1SC(C)(C)[C@@H]2C(=O)O` [DICLOXACILLIN], for which the “logP(lung)” value in data set [1] was -0.92.
The same measure, in the same setting: then `O=C1NC(=O)C(c2ccccc2)(c2ccccc2)N1` [PHENYTOIN], with -0.1.
In the case of `CCCCCC1(CC)C(=O)NC(=O)NC1=O`, the “logP(lung)” value in data set [1] was 0.22.
Same read-out and setting: the result for `CCCCCCC1(CC)C(=O)NC(=O)NC1=O` reads 0.08.
On to `c1ccccc1` [BENZENE], for which the “logK(blood)” value in data set [3] is 1.05. Moreover, the “logK(lung)” value in data set [4] was found to be 1.08.
`O=C1Nc2ccc(Cl)cc2C(c2ccccc2Cl)=NC1O` (stereo not drawn) [LORAZEPAM]: the “logP(lung)” value in data set [1] amounted to 0.44.
Turning to `CN1C(=O)CC[C@H]1c1cccnc1` [COTININE], the “logP(lung)” value in data set [1] is on record as -0.18.
On the same count and under the same terms, then `CCCC1(CC)C(=O)NC(=O)NC1=O`, with 0.16; and `CCCC1O[C@@H]2C[C@H]3[C@@H]4CCC5=CC(=O)C=C[C@]5(C)[C@H]4[C@@H](O)C[C@]3(C)[C@]2(C(=O)CO)O1` (stereo partly drawn) [BUDESONIDE], with 0.94; and `CN1CCC[C@H]1c1cccnc1` [NICOTINE], with 0.32.
The same measure, in the same setting: the result for `CN1C(=O)NC(=O)C(C)(C2=CCCCC2)C1=O` (stereo not drawn) [HEXOBARBITAL] reads 0.45; that for `Cc1nc(Nc2ccc(F)cc2)nc(N2CCc3ccccc3C2C)c1C.Cl` (stereo not drawn) [REVAPRAZAN HYDROCHLORIDE], 1.34.
As to `c1cc2ccc3cccc4ccc(c1)c2c34` [PYRENE], in data set [1], the “logP(lung)” value came out at 0.35.
Turning to `CCC1(C)C(=O)NC(=O)NC1=O`, the “logP(lung)” value in data set [1] was -0.21.
Still for that read-out and setting: then `CCCC(C)C1(CC)C(=O)NC(=S)NC1=O` (stereo not drawn) [THIOPENTAL], with 0.08; and `CC(C)=CCN1CC[C@]2(C)c3cc(O)ccc3C[C@H]1[C@H]2C` [(+)-PENTAZOCINE], with 1.43.
The same measure, in the same setting: then `Nc1cc(Cl)c(S(N)(=O)=O)cc1-c1nnn[nH]1`, with 0.6.
